Where “and” joins values, the source holds several entries; their conditions need not be identical. Equal entries are not always repeated.
Experiments:
[1] = system: 212 bp NdeI–HpaI fragment of pSP73KB DNA; assay: Transcription mapping of DNA adducts (T7 RNA polymerase); format: biochemical; conditions: in the dark; rb=0.01
Method: Sequence preference of DNA adducts: Transcription mapping experiments were performed to determine the DNA binding sites for Pt complexes. The experiments were carried out using a linear 212 bp DNA fragment (sequence in Figure 9 B), randomly modified by transplatin (8), cisplatin (7), 5 or 6 in the dark or by 1 and 2 photoactivated with blue light (420 nm) at rb=0.01 (rb is defined as the number of the molecules of platinum complex coordinated per nucleotide residue), for RNA synthesis by T7 RNA polymerase (Figure 9 A, lanes 8, 7, 5, 6, 1 and 2, respectively). RNA synthesis on the template modified by the platinum complexes produced fragments of defined sizes (Figure 9 A), which indicate the sites where RNA synthesis was prematurely terminated. It should be noted that RNA synthesis by T7 RNA polymerase is prematurely terminated only due to the platinum adducts on the template strand.[23] […] The ability to bind to A and C sites is consistent with the result from AMP and CMP binding experiments (Figure S18 in the Supporting Information).
Figure 9 Inhibition of RNA synthesis by T7 RNA polymerase on the NdeI–HpaI fragment of pSP73KB plasmid DNA modified by complexes 5 or 6, cisplatin (7) or transplatin (8) in the dark, or with photoactivated 1 or 2 (420 nm light). A) Autoradiogram of a polyacrylamide (6 %)/urea (8 M) sequencing gel. […]
assayed by differential pulse polarography for free, unbound platinum.[16] The amount of platinum bound to DNA was calculated by subtracting the amount of free (unbound) platinum from the total amount of platinum present in the reaction. […]
This fragment contained T7 RNA polymerase promoter (in the upper strand close to its 3'-end). […] The fragments produced in RNA synthesis on the template modified by the platinum complexes were analysed by a 6% polyacrylamide/8M urea sequencing gel.
Quantification of DNA adducts […]
Platinum associated with DNA was assessed by flameless atomic absorption […]
Quantification of DNA interstrand cross-links […]

pUC19 plasmid DNA = assay: Unwinding of negatively supercoiled DNA, native agarose gel; format: biochemical; conditions: in the dark
Method: Unwinding of negatively supercoiled DNA: The unwinding induced in negatively supercoiled pUC19 plasmid DNA by treatment with photoactivated 1 or 2 or with 5 or 6 in the dark was measured. The degree of supercoiling was monitored using electrophoresis in native agarose gels[25] (Figure 12). The DNA unwinding angles for 1, 2, 5, and 6 were 22(±3)°, 20(±3)°, 19(±5)° and 23(±2)°, respectively.
Figure 12 Unwinding of negatively supercoiled […] plasmid DNA by: A) 1, and B) 2 under irradiation conditions (420 nm light); or C) 5, and D) 6 in the dark. The top bands in each panel correspond to the form of nicked plasmid and the bottom bands to the closed, negatively supercoiled plasmid. A) Lane 1: control, non-modified DNA; lane 2: irradiated control DNA; […]: DNA modified by photoactivated 1 at rb=0.016, 0.024, 0.032, 0.041 and 0.049, respectively. B) Lanes 1 and 10: control, non-modified DNA; lane 2: irradiated control DNA; lanes 3–9: DNA modified by photoactivated 2 at rb=0.008, 0.011, 0.020, 0.026, 0.035, 0.042 and 0.050, respectively. C) Lanes 1 and 12: control, non-modified DNA; lanes 2–11: DNA modified by 5 in the dark at rb=0.018, 0.027, 0.036, 0.045, 0.054, 0.063, 0.072, 0.081, 0.090 and 0.1, respectively. […]

| SMILES | Sequence specificity [1] | Unwinding angle (pUC19 plasmid DNA) |
| --- | --- | --- |
| C[NH2+][Pt@SP3-2]([Cl])([Cl])[n+]1ccccc1 [Complex 5, trans-[PtCl2(MA)(Py)]] | stop sites mainly at G and C and G, C | 19(±5) ° and 19±5 ° |
| C[NH2+][Pt@SP3-2]([Cl])([Cl])[n+]1ccsc1 [Complex 6, trans-[PtCl2(MA)(Tz)]] | stop sites mainly at G and C and G, C | 23(±2) ° and 23±2 ° |

Source: PMC4280898, “Diazido Mixed-Amine Platinum(IV) Anticancer Complexes Activatable by Visible-Light Form Novel DNA Adducts” (Chemistry (Weinheim an Der Bergstrasse, Germany), 2013)
